“Also recorded” adds a separate entry of the source.

The text below walks through data of patent publication US20240368278A1, “GENERATION AND CHARACTERIZATION OF NOVEL TIM-4 BINDING AGENTS” (Heat Biologics, Inc., priority 2021, published 2024).

The test system of test [1] is THP-1 cells. In words: Phagocytosis assay in THP-1 cells with phosphatidylserine lipid microparticles. Format: cell-based. The conditions noted are these: for inhibition of phagocytosis (RFU): phosphatidylserine lipid microparticles, peptides at 100 μg/mL, 3 h under serum starvation, vs untreated control. The source says:
FIG. 2A, FIG. 2B, and FIG. 2C show an image of the THP-1 experimental workflow, an image of THP-1 cells undergoing phagocytosis, and a graph showing data from the phagocytosis experiment. FIG. 2A is an image of the experimental workflow. FIG. 2B is a graph showing data from the peptides derived from the CDR3 regions of antibodies tested in the phagocytosis assay. In FIG. 2B, along the x-axis, “156-1G” refers to SEQ ID NO: 7, “156-IH” refers to SEQ ID NO: 11, “156-2B” refers to SEQ ID NO: 3, and “156-2F” refers to SEQ ID NO: 15. In this assay, cells were treated with the indicated treatments, and cytochalasin D (20 μM) was used as a control to show phagocytosis failure. CDR3 regions from antibodies that bound to Tim-4 were synthesized as peptides, and subsequently tested. The data shown in FIG. 2B represents peptides tested at 100 μg/mL. Statistics were performed using a one-way ANOVA followed by a multiple comparison test comparing each treatment to “untreated” control (p>0.05=*, ns=not significant). […] Phosphatidylserine (“PS”) lipid microparticles are shown and superimposed onto brightfield images of THP-1 cells. […] Scale bar represents 150 μm.
Phagocytosis assays using the developed peptides derived from the CDR3 regions of antibodies (e.g., SEQ ID NO: 35, SEQ ID NO: 36, SEQ ID NO: 37, and SEQ ID NO: 38) and THP-1 cells were completed by following the experimental outline shown in FIG. 2A. In these experiments, 1×10^5 cells were seeded on a 96 well plate, and the synthesized peptides (e.g., SEQ ID NO: 35, SEQ ID NO: 36, SEQ ID NO: 37, and SEQ ID NO: 38) were then added onto the plate for three hours under serum starvation. Phosphatidylserine lipid microparticles were then added in media containing 10% FBS. Cells were then washed 3 to 5 times with PBS, and the level of fluorescence (e.g., relative fluorescence units, “RFU”) was then analyzed with a plate reader. In these experiments, cytochalasin D (20 μM) was used as a control to show phagocytosis failure. […]

The subject of test [2] is THP-1 cells. In words: Phagocytosis assay in THP-1 cells with carboxylate beads. The conditions noted are these: 96 well plate, vs untreated control. The format is cell-based. The method, then: FIG. 3A and FIG. 3B are graphs showing dose response curves of the phagocytosis assay in THP-1 cells using both PS beads and carboxylate beads.
In FIG. 8A, cells were plated on a 96 well plate and treatments were performed with carboxylate beads. Statistics were performed using a one-way ANOVA followed by a multiple comparison test comparing each treatment to the “untreated” control (p>0.05=*, p>0.01=**, p>0.001=***, p>0.0001=****). FIG. 8B are representative images of the phagocytosis assay. […] Scale bare represents 150 μm. […] Scale bar represents 150 μm. FIG. 8D is a graph of a dose response curve.
(§1) To further validate the function of the synthesized peptide, SEQ ID NO: 17, a phagocytosis assay using SEQ ID NO: 17 in THP-1 cells (FIG. 8A, FIG. 8B, FIG. 8C, and FIG. 8D), and in RAW 264.7 cells (FIG. 9A and FIG. 9B), was performed. […] A dose response curve for SEQ ID NO: 17 in THP-1 cells was generated (FIG. 8D). […] A dose response curve for SEQ ID NO: 17 in RAW 264.7 cells was generated (FIG. 9B).

Another test deals with Tim4-Hek293-FT cells. Put plainly: Phagocytosis assay in Tim4-Hek293-FT cell line. The format is cell-based. The conditions noted are these: for inhibition of phagocytosis (RFU): Tim4-Hek293-FT cells, 96 well plate, vs untreated control. The method, then:
Stable Tim-4 expression was confirmed by RT-PCR using primers against Tim-4 mRNA and Gapdh mRNA (control). […] Scale bar represents 300 μm.
In FIG. 5A, the Tim4-Hek293-FT cells were plated in a 96 well plate, followed by the phagocytosis assay. Statistical analysis was performed using a t-test (p>0.05=*). Relative fluorescence units (“RFU”) were normalized to fluorescent intensity at hour zero. In FIG. 5B, Tim4-Hek293-FT cells were fixed and immunolabeled against Tim-4 and counterstained with DAPI. […] Arrows indicate phosphatidylserine bead. Scale bar represents 75 μm.
In FIG. 7A, cells were plated on a 96 well plate and treatments were performed similar to FIG. 2A. Statistics were performed using a one-way ANOVA followed by a multiple comparison test comparing each treatment to the “untreated” control (p>0.05=*, p>0.01=**, p>0.001=***). […] In FIG. 7A, “116-117 1A” is SEQ ID NO: 30 ([…]), “116-117 2C” is SEQ ID NO: 23 ([…]), “116-117 2D” is SEQ ID NO: 24 ([…]), “116-117 2F” is SEQ ID NO: 25 ([…]), “116-117 3B” is SEQ ID NO: 26 ([…]), “116-117 3C” is SEQ ID NO: 27 ([…]), “116-117 3E” is SEQ ID NO: 17 ([…]), “116-117 3F” is SEQ ID NO: 28 ([…]), “116-117 4A” is SEQ ID NO: 22 ([…]), and “116-117 4G” is SEQ ID NO: 29 ([…]). […] Scale bar represents 150 μm.
To further validate the function of the synthesized peptides, a Tim4-Hek293-FT cell line was developed (FIG. 4A).
A phagocytosis assay, as previously described above and following the experimental outline of FIG. 2A, was performed in the Tim4-Hek293-FT cells. In these experiments, cytochalasin D (20 μM) was used as a control to show phagocytosis failure. […] The inhibition of phagocytosis by SEQ ID NO: 17 is also shown in the immunofluorescence images of FIG. 7B.

The subject of another test is RAW 264.7 cells. Put plainly: RAW phagocytosis assay with carboxylate beads. Format: cell-based, mouse. The conditions noted are these: across a range of doses. The method, then: In FIG. 9A, cells were plated on a 96 well plate and treatments were performed with carboxylate beads. Statistics were performed using a one-way ANOVA, followed by a multiple comparison test comparing each treatment to the “untreated” control (p>0.05=*, p>0.01=**, p>0.001=***, p>0.0001=****). In FIG. 9B, a dose response curve of a RAW phagocytosis assay was performed using mouse macrophages RAW cells with cytochalasin D as a control, and graphed in log scale.
as §1

Test [3] relates to THP-1 cells. Put plainly: Autophagy assay (autophagosome formation) in THP-1 cells. Format: cell-based. The conditions noted are these: labeled autophagosomes, Hoechst nuclear stain. The text has this:
In FIG. 11B, autophagosomes are labeled and Hoechst stain is used for nuclear staining.

The target in a further test is T1, Tim-4 (Homo sapiens, UniProt Q96H15).
T1 sequence (Q96H15 25-378): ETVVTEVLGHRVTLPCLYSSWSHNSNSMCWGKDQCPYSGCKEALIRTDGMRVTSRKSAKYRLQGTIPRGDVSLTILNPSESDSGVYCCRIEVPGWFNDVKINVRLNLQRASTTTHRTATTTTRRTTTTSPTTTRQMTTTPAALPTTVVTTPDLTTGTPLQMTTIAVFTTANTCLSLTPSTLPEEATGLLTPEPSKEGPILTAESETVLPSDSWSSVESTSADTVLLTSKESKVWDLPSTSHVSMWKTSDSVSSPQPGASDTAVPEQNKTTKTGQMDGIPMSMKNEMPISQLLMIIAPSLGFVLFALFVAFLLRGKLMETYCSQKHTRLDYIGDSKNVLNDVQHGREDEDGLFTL
In words: Binding to Tim-4 (identification of binders).

Take QTLAFAYNDSDWFEVYKG [156-1G]: in the test with THP-1 cells [1], the “inhibition of phagocytosis (RFU)” value is reported as “significantly inhibited phagocytosis”.

For QCYANHMYCNDSIAVYHFQM [SEQ ID NO: 17], in the test on THP-1 cells [1], the “inhibition of phagocytosis with phosphatidylserine lipid microparticles compared to carboxylate beads (dose response curves)” value was “greater inhibition”. In addition, the inhibition of phagocytosis entry in the test with THP-1 cells [2] was “inhibited phagocytosis”; in the test with THP-1 cells [2] (listed as 116-117 3E) it was “inhibits phagocytosis”; in the test with RAW 264.7 cells it was “inhibited phagocytosis”. Besides, the “phagocytosis of the phosphatidylserine bead (immunofluorescence image)” value in the test on Tim4-Hek293-FT cells (Tim4-Hek293-FT cells fixed, immunolabeled against Tim-4, DAPI) is “reduced ability of phagocytosis”. Also, the “inhibition of phagocytosis (RFU)” value with Tim4-Hek293-FT cells was “inhibited phagocytosis”; in the test with Tim4-Hek293-FT cells (listed as 116-117 3E), “inhibits phagocytosis”. In the test with THP-1 cells [3], the autophagosome formation entry was “reduces autophagosome formation”. Further, in the test with Tim-4, the “binding to Tim-4” value is “bound to Tim4”.

For KVAVMTMAEANRRGTYSS [SEQ ID NO: 3], the “inhibition of phagocytosis (RFU)” value in the test on THP-1 cells [1] was “significantly inhibited phagocytosis”; in the test with Tim4-Hek293-FT cells, “inhibit phagocytosis; also recorded: limit phagocytosis”.
